Experimental findings from patent US11254640B2, “N-substituted indoles and other heterocycles for treating brain disorders” (The Regents of the University of California, priority 2019, dated 2022) are described below.

Read-outs that look alike come from different tables or passages of the source.

The target of one assay is T1, 5HT2A (Homo sapiens, UniProt P28223).
T1 construct: expressed in transfected cells
In words: Calcium flux assay (Calcium secondary messenger pathway). It is filed as cell-based. The note with it: agonist mode. The source says: Calcium Flux Assay. Calcium Secondary Messenger Pathway. The Calcium No Wash^PLUS assay monitors the activation of a GPCR (e.g., 5HT2A) via Gq secondary messenger signaling in a live cell, non-imaging assay format. Calcium mobilization in PathHunter® cell lines or other cell lines stably expressing Gq-coupled GPCRs (e.g., 5HT2A) is monitored using a calcium-sensitive dye that is loaded into cells. GPCR (e.g., 5HT2A) activation by a compound results in the release of calcium from intracellular stores and an increase in dye fluorescence that is measured in real-time. In some embodiments, the ability of a compound of the present invention to modulate 5-HT2A function is determined using a calcium flux assay. In some embodiments, a compound of the present invention activates a calcium flux assay.
Calcium Secondary Messenger Pathway. Cell lines were expanded from freezer stocks according to standard procedures. Cells were seeded in a total volume of 20 μL into black-walled, clear-bottom, Poly-D-lysine coated 384-well microplates and incubated at 37° C. for the appropriate time prior to testing. Assays were performed in 1× Dye Loading Buffer consisting of 1× Dye, 1× Additive A and 2.5 mM Probenecid in HBSS/20 mM Hepes. Probenicid was prepared fresh. Cells were loaded with dye prior to testing. Media was aspirated from cells and replaced with 20 μL Dye Loading Buffer. Cells were incubated for 30-60 minutes at 37° C.
For agonist determination, cells were incubated with sample to induce response. After dye loading, cells were removed from the incubator and 10 μL HBSS/20 mM Hepes was added. 3× vehicle was included in the buffer when performing agonist dose curves to define the EC80 for subsequent antagonist assays. Cells were incubated for 30 minutes at room temperature in the dark to equilibrate plate temperature. Intermediate dilution of sample stocks was performed to generate 4× sample in assay buffer. Compound agonist activity was measured on a FLIPR Tetra (MDS). Calcium mobilization was monitored for 2 minutes and 10 μL 4× sample in HBSS/20 mM Hepes was added to the cells 5 seconds into the assay.
Compound activity was analyzed using CBIS data analysis suite (ChemInnovation, CA). For agonist mode assays, percentage activity is calculated using the following formula: % Activity=100%×(mean RFU of test sample−mean RFU of vehicle control)/(mean MAX RFU control ligand−mean RFU of vehicle control).
A general note: Calcium assays in cells follow changes in intracellular calcium, usually with a dye or a luminescent sensor.

Assay [1] has as its system 5HT2A sensor. In words: 5HT2A sensor assay, antagonist mode (sLight1.3s HEK293T stable line). It is filed as cell-based. The conditions noted are these: relative to 5-HT at 100 nM; for 5HT2A Antagonist mean @ 100 nM (%): 100 nM compound; for 5HT2A Antagonist mean @ 10 μM (%): 10 μM compound; for 5HT2A Antagonist mean @ 100 μM (%): 100 μM compound. How it is done:
In some embodiments, the 5HT2A sensor assay is in an antagonist mode.
(§1) 5HT2A Sensor Assays. HEK293T (ATCC) 5HT2A sensor stable line (sLight1.3s) was generated via lentiviral transduction of HIV-EF1α-sLight1.3 and propagated from a single colony. Lentivirus was produced using 2nd generation lentiviral plasmids pHIV-EF1α-sLight1.3, pHCMV-G, and pCMV-deltaR8.2.
(§2) For the screening of the 41 compounds, sLight1.3s cells were plated in 96-well plates at a density of 40000 24-hours prior to imaging. On the day of imaging, compounds solubilized in DMSO were diluted from the 100 mM stock solution to working concentrations of 1 mM, 100 μM and 1 μM with a DMSO concentration of 1%. Immediately prior to imaging, cells growing in DMEM (Gibco) were washed 2× with HBSS (Gibco) and in agonist mode 180 μL of HBSS or in antagonist mode 160 μL of HBSS was added to each well after the final wash. For agonist mode, images were taken before and after the addition of the 20 μL compound working solution into the wells containing 180 μL HBSS. This produced final compound concentrations of 100 μM, 10 μM and 100 nM with a DMSO concentration of 0.1%. For antagonist mode, images were taken before and after addition of 20 μL of 900 nM 5-HT and again after 20 μL of the compound working solutions to produce final concentrations of 100 nM for 5HT and 100 μM, 10 μM and 100 nM for the compounds with a DMSO concentration of 0.1%. Each compound was tested in triplicates (3 wells) for each concentration (100 μM, 10 μM and 100 nM). Additionally, within each plate, 100 nM 5HT and 0.1% DMSO controls were also imaged.
(§3) Imaging was performed using the Leica DMi8 inverted microscope with a 40× objective using the FITC preset with an excitation of 460 nm and emission of 512-542 nm. For each well, the cellular membrane where the 5HT2A sensor is targeted was autofocused using the adaptive focus controls and 5 images from different regions within the well were taken with each image processed from a 2×2 binning.
(§4) For data processing, the membranes from each image was segmented and analyzed using a custom algorithm written in MATLAB producing a single raw fluorescence intensity value. For each well the 5 raw fluorescence intensity values generated from the 5 images were averaged and the change in fluorescence intensity (dFF) was calculated as: dFF=(Fsat−Fapo)/Fapo
(§5) For both agonist and antagonist modes, the fluorescence intensity values before compound addition in HBSS only were used as the Fapo values while the fluorescence intensity values after compound addition were used as the Fsat values.
(§6) For agonist mode, data are as percent activation relative to 5HT, where 0 is the average of the DMSO wells and 100 is the average of the 100 uM 5HT wells. For antagonist mode, the inactivation score was calculated as: Inactivation score=(dFFF(Compound+5HT)−dFF(5HT))/dFF(5HT)

Assay [2] relates to 5HT2A sensor. In words: 5HT2A sensor assay, agonist mode (sLight1.3s HEK293T stable line). It is filed as cell-based. The note with it: for 5HT2A Agonist mean @ 100 nM (%): 100 nM compound; for 5HT2A Agonist mean @ 100 nM (%) / 5HT2A Agonist mean @ 10 μM (%) / 5HT2A Agonist mean @ 100 μM (%): percent relative to 5-HT at 100 uM; for 5HT2A Agonist mean @ 10 μM (%): 10 μM compound; for 5HT2A Agonist mean @ 100 μM (%): 100 μM compound. How it is done:
In some embodiments, hallucinogenic potential of a compound of the present invention is determined in vitro. In some embodiments, hallucinogenic potential of a compound of the present invention is determined using a 5HT2A sensor assay. In some embodiments, the 5HT2A sensor assay is in an agonist mode or an antagonist mode. In some embodiments, the 5HT2A sensor assay is in an agonist mode.
as §1, §2, §3, §4, §5, §6

For a further assay, the system named is rat cortical neurons. In words: Neurite outgrowth assay. It is filed as cell-based. The conditions noted are these: Cortical neurone, 1 hour treatment at DIV 4, analysed DIV 7, fold vs DMSO control. The source says:
Neurite outgrowth assay. Changes in the pattern of neurite outgrowth have been implicated in neurodegenerative disorders as well as traumatic injuries. The discovery of new compounds that can positively affect neuritogenesis are important for developing new therapeutics for neurological diseases. Measurement of neurite outgrowth of rat cortical neurons using an automated image-based assay was used to determine the neuroplastic effects of the compounds of the present invention. In some embodiments, a compound of the present invention increases the pattern of neurite outgrowth. In some embodiments, a compound of the present invention increases neurite average length compared to a control. In some embodiments, a compound of the present invention increases neurite branch points compared to a control. In some embodiments, a compound of the present invention increases neurite average length and neurite branch points compared to a control.
Neurite Outgrowth Assay. Rat cortical neurons (20,000 cells/well) were freshly isolated from embryonic day 18 rats and cultured in Neurobasal Medium (+B27). The cultured cells were plated in 96 well-plates (avoiding external wells). At DIV 4, the neurons were treated with compound or control (10 μM) for 1 hour followed by complete washout of the compound. At DIV 7, the neurons were analyzed. The experiments were performed in triplicate. Neurite outgrowth was measured analyzing the following parameters: Number of Cell Bodies, total neurite length (pixels), Root Count, Segments, Extremities Count and node points. Changes in the pattern of neurite outgrowth of the neurons were analyzed by immunocytochemistry against β-III-tubulin. Pictures were acquired by the CellInsight CX7 from Thermo Fisher and analyzed using its software. Results generated in the equipment were maximum neurite length, extremity count, root count, dendrite branch points, and total neurite length. The results were compared to DMSO control, representing the fold-change in neuronal outgrowth.

The test system of a further assay is cortical neurons. In words: Dendritogenesis assay, Sholl analysis. It is filed as cell-based, rat. The conditions noted are these: Rattus norvegicus, Cortical neurone; 10 μM; Nmax with vehicle (DMSO) = 0% and ketamine = 100%; read-out: % efficacy in sholls. From the text: Dendritogenesis Assays. Phenotypic screening has historically proven more successful than target-based approaches for identifying drugs with novel mechanisms of action. Having established a simple and robust method for accessing isoDMT analogs, tested next was their ability to increase dendritic arbor complexity in cultures of cortical neurons using a phenotypic assay. Following treatment, neurons were fixed and visualized using an antibody against MAP2—a cytoskeletal protein localized to the somatodendritic compartment of neurons. Sholl analysis was then performed, and the maximum number of crossings (Nmax) was used as a quantitative metric of dendritic arbor complexity. For statistical comparisons between specific compounds, the raw Nmax values were compared. Percent efficacies were determined by setting the Nmax values for the vehicle (DMSO) and positive (ketamine) controls equal to 0% and 100%, respectively.
Animals. For the dendritogenesis experiments, timed pregnant Sprague Dawley rats were obtained from Charles River Laboratories (Wilmington, Mass.). For the head-twitch response assay, male and female C57BL/6J mice were obtained from Jackson Laboratory (Sacramento, Calif.). Mice were housed in a temperature and humidity-controlled room maintained on a 12-h light/dark cycle in groups of 4-5 (same sex). Animals weighed between 17 and 30 g at the time of the experiments. All experimental procedures involving rodents were approved by the UC Davis Institutional Animal Care and Use Committee (IACUC) and adhered to principles described in the National Institutes of Health Guide for the Care and Use of Laboratory Animals. The University of California, Davis and the University of California, San Francisco are accredited by the Association for Assessment and Accreditation of Laboratory Animal Care International (AAALAC).
Dendritogenesis—Sholl Analysis. Dendritogenesis experiments were performed following a previously published method with slight modifications. Neurons were plated in 96-well format (200 μL of media per well) at a density of approximately 15,000 cells/well in Neurobasal (Life Technologies) containing 1% penicillin-streptomycin, 10% heat-inactivated fetal bovine serum, and 0.5 mM glutamine. After 24 h, the medium was replaced with Neurobasal containing 1× B27 supplement (Life Technologies), 1% penicillin-streptomycin, 0.5 mM glutamine, and 12.5 μM glutamate. After 3 days in vitro (DIV3), the cells were treated with compounds. All compounds tested in the dendritogenesis assays were treated at 10 μM unless noted otherwise. Stock solutions of the compounds in DMSO were first diluted 100-fold in Neurobasal before an additional 10-fold dilution into each well (total dilution=1:1000; 0.1% DMSO concentration). Treatments were randomized. After 1 h, the media was removed and replaced with new Neurobasal media containing 1× B27 supplement, 1% penicillin-streptomycin, 0.5 mM glutamine, and 12.5 μM glutamate. The cells were allowed to grow for an additional 71 h. At that time, neurons were fixed by removing 80% of the media and replacing it with a volume of 4% aqueous paraformaldehyde (Alfa Aesar) equal to 50% of the working volume of the well. Then, the cells were incubated at room temperature for 20 min before the fixative was aspirated and each well washed twice with DPBS. Cells were permeabilized using 0.2% Triton X-100 (ThermoFisher) in DPBS for 20 minutes at room temperature without shaking. Plates were blocked with antibody diluting buffer (ADB) containing 2% bovine serum albumin (BSA) in DPBS for 1 h at room temperature. Then, plates were incubated overnight at 4° C. with gentle shaking in ADB containing a chicken anti-MAP2 antibody (1:10,000; EnCor, CPCA-MAP2). The next day, plates were washed three times with DPBS and once with 2% ADB in DPBS. […]

Where [3] appears, read: read-out: Neurite Average Length @ 10 μM.
Setting [4] is: read-out: Neurite Branch Points: @ 10 μM.

T1 sequence (P28223 whole entry): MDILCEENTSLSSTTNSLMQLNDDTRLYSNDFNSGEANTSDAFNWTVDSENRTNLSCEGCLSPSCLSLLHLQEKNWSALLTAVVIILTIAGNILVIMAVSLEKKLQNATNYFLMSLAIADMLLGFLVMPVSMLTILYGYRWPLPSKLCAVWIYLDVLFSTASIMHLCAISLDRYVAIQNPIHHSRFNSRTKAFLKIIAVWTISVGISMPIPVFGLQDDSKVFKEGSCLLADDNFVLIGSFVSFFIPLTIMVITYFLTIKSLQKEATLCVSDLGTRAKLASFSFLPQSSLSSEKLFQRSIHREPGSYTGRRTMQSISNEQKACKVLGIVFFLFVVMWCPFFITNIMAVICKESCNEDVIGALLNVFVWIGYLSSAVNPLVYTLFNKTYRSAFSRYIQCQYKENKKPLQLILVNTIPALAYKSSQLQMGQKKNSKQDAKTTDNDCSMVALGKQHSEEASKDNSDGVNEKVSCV

As usually defined, the EC50 is the concentration needed to bring the measured effect to its halfway point. On to `COc1ccc2c(ccn2CCN2CCCCC2)c1` [Example 45, 5-methoxy-1-(2-(piperidin-1-yl)ethyl)-1H-indole], for which, at 5HT2A, the EC50 is above 10 µM. Besides, in the assay with 5HT2A sensor [1], the “5HT2A Antagonist mean @ 100 nM (%)” value was “A (inhibits 5HT response by >100%)”, the “5HT2A Antagonist mean @ 10 μM (%)” value is given as “B (inhibits 5HT response by 75% to 100%)” and the “5HT2A Antagonist mean @ 100 μM (%)” value is given as “A (inhibits 5HT response by >100%)”. Moreover, in the assay on 5HT2A sensor [2], the “5HT2A Agonist mean @ 100 nM (%)” value is “B (does not activate 5HT2A sensor assay in agonist mode)”, the “5HT2A Agonist mean @ 10 μM (%)” value is on record as “B (does not activate 5HT2A sensor assay in agonist mode)” and the “5HT2A Agonist mean @ 100 μM (%)” value is on record as “B (does not activate 5HT2A sensor assay in agonist mode)”. Also, the fold induction at 10 µM in the assay on rat cortical neurons (setting [3]) fell in the range of 1.5 to 3. Further, in the assay on rat cortical neurons (setting [4]), the fold induction at 10 µM lay within 1.5 to 3.

In the case of `Cc1cn(C[C@@H](C)N(C)C)c2ccc(F)cc12` [Example 74, (R)-1-(5-fluoro-3-methyl-1H-indol-1-yl)-N,N-dimethylpropan-2-amine], at 5HT2A, the EC50 was above 10 µM. In addition, in the assay on 5HT2A sensor [1], the “5HT2A Antagonist mean @ 100 nM (%)” value is on record as “A (inhibits 5HT response by >100%)”, the “5HT2A Antagonist mean @ 10 μM (%)” value is on record as “A (inhibits 5HT response by >100%)” and the “5HT2A Antagonist mean @ 100 μM (%)” value was “B (inhibits 5HT response by 75% to 100%)”. In the assay on 5HT2A sensor [2], the “5HT2A Agonist mean @ 100 nM (%)” value is on record as “B (does not activate 5HT2A sensor assay in agonist mode)”, the “5HT2A Agonist mean @ 10 μM (%)” value is listed as “B (does not activate 5HT2A sensor assay in agonist mode)” and the “5HT2A Agonist mean @ 100 μM (%)” value was “B (does not activate 5HT2A sensor assay in agonist mode)”. Further, in the assay on rat cortical neurons (setting [3]), the fold induction at 10 µM was 1.5 to 3. In addition, the fold induction at 10 µM in the assay on rat cortical neurons (setting [4]) was in the range of 1.5 to 3.

As for `CN(C)CCc1c[nH]c2ccccc12` [Example 1, N,N-dimethyltryptamine, reference compound], the Emax at 10 µM in the assay with cortical neurons was found to be 79%. In the assay with 5HT2A sensor [2] (10 μM of compound (FIG. 11)), the “activation of 5HT2A sensor assay in agonist mode at 10 μM” value is on record as “activate the 5HT2A sensor assay in agonist mode”.
